Reference: US20130344008A1, “NONCARIOUS MATERIAL AND ANTICARIOUS AGENT CONTAINING RARE SUGAR” (priority 2006, published 2013)

How the values were obtained:
Type in all cases: cell-based, Streptococcus mutans
[1] = test system: S. mutans strain (JCM5075); experiment: Example 3: pH of S. mutans culture in BHI broth with test substance after 48-hour culturing; details: 10% test substance, BHI broth, after 48-hour culturing
Method: Allitol and D-sorbose were used to assay the actions thereof against S. mutans. Allitol and D-sorbose were supplied from the Rare Sugar Research Center, the National University Corporation Kagawa University. The S. mutans strain (JCM5075) was plated in a Brain Heart Infusion broth containing a 10% test substance, to measure the pH of the liquid culture after 48-hour culturing. As a control, 1% sucrose and 10% Xylitol were used.

[2] = test system: S. mutans strain MT 8148 (JCM5175); experiment: Example 2: bacterial growth (OD 660 nm) and pH of S. mutans culture in phenol red broth with 1% test substance; details: PRB broth, 37° C., 48 hours later; for OD: bacterial growth, absorbance at 660 nm
Method: D-Psicose and L-psicose were used to assay the actions thereof against S. mutans. D-Psicose and L-psicose were supplied from the Rare Sugar Research Center, the National University Corporation Kagawa University. The S. mutans strain MT 8148 (JCM5175) was plated in a Brain Heart Infusion broth supplemented with agar for culturing at 37° C. for 48 hours. The liquid culture was inoculated in a fresh Brain Heart Infusion broth, for culturing at 37° C. for 24 hours. The liquid culture was inoculated in a phenol red broth (PRB broth) containing a test substance at 1%, for culturing at 37° C.; the bacterial growth (absorbance at 660 nm: OD) and the pH were assayed 48 hours later. Asa control, glucose, fructose, sucrose and Xylitol were used. After culturing for a given period of time, additionally, the optical density of apart of the liquid culture was measured with an absorptiometer (OD 660 nm).

[3] = test system: S. mutans strain JCM5075; experiment: Example 1: optical density and pH of S. mutans JCM5075 cultures in BHI broth with rare sugars, with or without sucrose; details: for pH 0 hour later / pH 6 hours later / pH 8 hours later / pH 12 hours later / pH 24 hours later / Optical density (OD) 12 hours later / suppression of OD increase compared with no addition: BHI broth; for Optical density (OD) 12 hours later: OD600; for suppression of the pH reduction: also with 1% sucrose addition; for suppression of OD increase compared with no addition: FIG. 2 / Table 1
Source text: S. mutans strains characteristically form insoluble glucan on addition of sucrose, to generate acids and reduce the pH of the culture medium, which is considered to cause decalcification of teeth on dental surface to form decayed teeth (the reason why the strains are designated bacteria causing decayed teeth). JCM 5075 of S. mutans strains and the Brain Heart Infusion (BHI) broth were used to assay the optical density (the increase of the number of the bacterial cells) and the pH change in individual rare sugar solutions with or without sucrose added. As the rare sugars, there were used D-fructose, L-fructose, D-sorbose, L-sorbose, D-psicose, L-psicose, D-tagatose and L-tagatose. The rare sugars used were supplied from the Rare Sugar Research Center, the National University Corporation Kagawa University.
The strain JCM5075 thawed from −80° C. stock was cultured for 48 hours, and was adjusted to OD 0.3. 100 μl of the resulting culture was added to each 2-ml portion of the BHI broths under individual conditions, to assay the optical density and the pH 24 hours later (observation with naked eyes and absorbance: OD600).
After collecting a part of the liquid culture and centrifuging the culture, the pH of the resulting supernatant was measured with a pH meter. The results are shown in Table 2 (0, 6, 8, 12 and 24 hours after the addition of the bacteria to the BHI broth) and FIG. 3.

[4] = 10% test substance + 1% sucrose

SMILES: OC[C@@H](O)[C@@H](O)[C@@H](O)[C@@H](O)CO [Allitol]
- pH [1]: 5.6
- pH ([1]; listed as allitol): ≥ 5.5

SMILES: O=C[C@H](O)[C@@H](O)[C@H](O)[C@H](O)CO [D-Glucose, reference compound]
- pH [2]: 3.9
- OD [2]: 0.26

SMILES: O=C(CO)[C@@H](O)[C@H](O)[C@H](O)CO [D-fructose, reference compound]
- pH change 24 hours later (in words) ([3]; 1% sucrose, or 10% Xylitol+1% sucrose, or 10% fructose+1% sucrose, FIG. 3): highly inclined to acidity
- pH 0 hour later ([3]; 5% test substance + 1% sucrose): 7.4
- pH 6 hours later ([3]; 5% test substance + 1% sucrose): 7.2
- pH 8 hours later ([3]; 5% test substance + 1% sucrose): 7.2
- pH 12 hours later ([3]; 5% test substance + 1% sucrose): 7.2
- pH 24 hours later ([3]; 5% test substance + 1% sucrose): 5.0
- pH 0 hour later ([3]; 5% test substance, no sucrose): 7.4
- pH 6 hours later ([3]; 5% test substance, no sucrose): 7.2
- pH 8 hours later ([3]; 5% test substance, no sucrose): 7.2
- pH 12 hours later ([3]; 5% test substance, no sucrose): 7.2
- pH 24 hours later ([3]; 5% test substance, no sucrose): 4.7
- pH 0 hour later [3, 4]: 7.3
- pH 6 hours later [3, 4]: 7.2
- pH 8 hours later [3, 4]: 7.2
- pH 12 hours later [3, 4]: 7.2
- pH 24 hours later [3, 4]: 5.1
- Optical density (OD) 12 hours later ([3]; 10% test substance): 0.114
- pH 0 hour later ([3]; 10% test substance, no sucrose): 7.3
- pH 6 hours later ([3]; 10% test substance, no sucrose): 7.2
- pH 8 hours later ([3]; 10% test substance, no sucrose): 7.2
- pH 12 hours later ([3]; 10% test substance, no sucrose): 7.2
- pH 24 hours later ([3]; 10% test substance, no sucrose): 6.5
- precipitation of bacterial masses (insoluble glucan) under observation with naked eyes ([3]; addition of 1% sucrose, addition of 10% D-fructose, 24 hours later): caused the precipitation of bacterial masses (insoluble glucan)

SMILES: O=C(CO)[C@@H](O)[C@@H](O)[C@H](O)CO [D-tagatose]
- pH 0 hour later ([3]; 5% test substance + 1% sucrose): 7.3
- pH 6 hours later ([3]; 5% test substance + 1% sucrose): 7.2
- pH 8 hours later ([3]; 5% test substance + 1% sucrose): 7.2
- pH 12 hours later ([3]; 5% test substance + 1% sucrose): 7.2
- pH 24 hours later ([3]; 5% test substance + 1% sucrose): 6.9
- pH 0 hour later ([3]; 5% test substance, no sucrose): 7.3
- pH 6 hours later ([3]; 5% test substance, no sucrose): 7.2
- pH 8 hours later ([3]; 5% test substance, no sucrose): 7.2
- pH 12 hours later ([3]; 5% test substance, no sucrose): 7.2
- pH 24 hours later ([3]; 5% test substance, no sucrose): 7.0
- pH 0 hour later [3, 4]: 7.1
- pH 6 hours later [3, 4]: 7.0
- pH 8 hours later [3, 4]: 7.0
- pH 12 hours later [3, 4]: 7.0
- pH 24 hours later [3, 4]: 6.9
- Optical density (OD) 12 hours later ([3]; 10% test substance): 0.132
- pH 0 hour later ([3]; 10% test substance, no sucrose): 7.1
- pH 6 hours later ([3]; 10% test substance, no sucrose): 7.0
- pH 8 hours later ([3]; 10% test substance, no sucrose): 7.0
- pH 12 hours later ([3]; 10% test substance, no sucrose): 7.0
- pH 24 hours later ([3]; 10% test substance, no sucrose): 6.9
- suppression of the pH reduction ([3]; 24 hours later, FIG. 3): pH reduction was suppressed
- suppression of OD increase compared with no addition [3]: suppression of OD increase was observed

SMILES: O=C(CO)[C@H](O)[C@@H](O)[C@@H](O)CO [L-fructose]
- pH [2]: 4.0
- OD [2]: 0.20
- pH 0 hour later ([3]; 5% test substance + 1% sucrose): 7.3
- pH 6 hours later ([3]; 5% test substance + 1% sucrose): 7.2
- pH 8 hours later ([3]; 5% test substance + 1% sucrose): 7.2
- pH 12 hours later ([3]; 5% test substance + 1% sucrose): 7.2
- pH 24 hours later ([3]; 5% test substance + 1% sucrose): 5.0
- pH 0 hour later ([3]; 5% test substance, no sucrose): 7.4
- pH 6 hours later ([3]; 5% test substance, no sucrose): 7.2
- pH 8 hours later ([3]; 5% test substance, no sucrose): 7.2
- pH 12 hours later ([3]; 5% test substance, no sucrose): 7.2
- pH 24 hours later ([3]; 5% test substance, no sucrose): 4.7
- pH 0 hour later [3, 4]: 7.3
- pH 6 hours later [3, 4]: 7.2
- pH 8 hours later [3, 4]: 7.2
- pH 12 hours later [3, 4]: 7.2
- pH 24 hours later [3, 4]: 6.7
- Optical density (OD) 12 hours later ([3]; 10% test substance): 0.037
- pH 0 hour later ([3]; 10% test substance, no sucrose): 7.3
- pH 6 hours later ([3]; 10% test substance, no sucrose): 7.2
- pH 8 hours later ([3]; 10% test substance, no sucrose): 7.2
- pH 12 hours later ([3]; 10% test substance, no sucrose): 7.2
- pH 24 hours later ([3]; 10% test substance, no sucrose): 6.5
- suppression of the pH reduction ([3]; 24 hours later, FIG. 3): pH reduction was suppressed
- suppression of OD increase compared with no addition [3]: suppression of OD increase was observed

SMILES: O=C(CO)[C@@H](O)[C@@H](O)[C@@H](O)CO [L-psicose]
- pH [2]: 5.9
- OD [2]: 0.02
- pH 0 hour later ([3]; 5% test substance + 1% sucrose): 7.3
- pH 6 hours later ([3]; 5% test substance + 1% sucrose): 7.2
- pH 8 hours later ([3]; 5% test substance + 1% sucrose): 7.2
- pH 12 hours later ([3]; 5% test substance + 1% sucrose): 7.2
- pH 24 hours later ([3]; 5% test substance + 1% sucrose): 6.2
- pH 0 hour later ([3]; 5% test substance, no sucrose): 7.3
- pH 6 hours later ([3]; 5% test substance, no sucrose): 7.2
- pH 8 hours later ([3]; 5% test substance, no sucrose): 7.2
- pH 12 hours later ([3]; 5% test substance, no sucrose): 7.2
- pH 24 hours later ([3]; 5% test substance, no sucrose): 6.8
- pH 0 hour later [3, 4]: 7.2
- pH 6 hours later [3, 4]: 7.1
- pH 8 hours later [3, 4]: 7.0
- pH 12 hours later [3, 4]: 7.0
- pH 24 hours later [3, 4]: 6.9
- Optical density (OD) 12 hours later ([3]; 10% test substance): 0.067
- pH 0 hour later ([3]; 10% test substance, no sucrose): 7.2
- pH 6 hours later ([3]; 10% test substance, no sucrose): 7.1
- pH 8 hours later ([3]; 10% test substance, no sucrose): 7.0
- pH 12 hours later ([3]; 10% test substance, no sucrose): 7.0
- pH 24 hours later ([3]; 10% test substance, no sucrose): 6.9
- suppression of the pH reduction ([3]; 24 hours later, FIG. 3): pH reduction was suppressed
- suppression of OD increase compared with no addition [3]: suppression of OD increase was observed

SMILES: O=C(CO)[C@@H](O)[C@H](O)[C@@H](O)CO [L-sorbose]
- pH 0 hour later ([3]; 5% test substance + 1% sucrose): 7.4
- pH 6 hours later ([3]; 5% test substance + 1% sucrose): 7.2
- pH 8 hours later ([3]; 5% test substance + 1% sucrose): 7.2
- pH 12 hours later ([3]; 5% test substance + 1% sucrose): 7.2
- pH 24 hours later ([3]; 5% test substance + 1% sucrose): 5.3
- pH 0 hour later ([3]; 5% test substance, no sucrose): 7.4
- pH 6 hours later ([3]; 5% test substance, no sucrose): 7.2
- pH 8 hours later ([3]; 5% test substance, no sucrose): 7.2
- pH 12 hours later ([3]; 5% test substance, no sucrose): 7.2
- pH 24 hours later ([3]; 5% test substance, no sucrose): 5.9
- pH 0 hour later [3, 4]: 7.3
- pH 6 hours later [3, 4]: 7.2
- pH 8 hours later [3, 4]: 7.2
- pH 12 hours later [3, 4]: 7.2
- pH 24 hours later [3, 4]: 6.4
- Optical density (OD) 12 hours later ([3]; 10% test substance): 0.463
- pH 0 hour later ([3]; 10% test substance, no sucrose): 7.3
- pH 6 hours later ([3]; 10% test substance, no sucrose): 7.2
- pH 8 hours later ([3]; 10% test substance, no sucrose): 7.2
- pH 12 hours later ([3]; 10% test substance, no sucrose): 7.2
- pH 24 hours later ([3]; 10% test substance, no sucrose): 7.1

SMILES: O=C(CO)[C@H](O)[C@H](O)[C@@H](O)CO [L-tagatose]
- pH 0 hour later ([3]; 5% test substance + 1% sucrose): 7.3
- pH 6 hours later ([3]; 5% test substance + 1% sucrose): 7.2
- pH 8 hours later ([3]; 5% test substance + 1% sucrose): 7.2
- pH 12 hours later ([3]; 5% test substance + 1% sucrose): 7.2
- pH 24 hours later ([3]; 5% test substance + 1% sucrose): 6.0
- pH 0 hour later ([3]; 5% test substance, no sucrose): 7.3
- pH 6 hours later ([3]; 5% test substance, no sucrose): 7.2
- pH 8 hours later ([3]; 5% test substance, no sucrose): 7.2
- pH 12 hours later ([3]; 5% test substance, no sucrose): 7.2
- pH 24 hours later ([3]; 5% test substance, no sucrose): 6.6
- pH 0 hour later [3, 4]: 7.1
- pH 6 hours later [3, 4]: 7.0
- pH 8 hours later [3, 4]: 6.9
- pH 12 hours later [3, 4]: 6.9
- pH 24 hours later [3, 4]: 6.8
- Optical density (OD) 12 hours later ([3]; 10% test substance): 0.026
- pH 0 hour later ([3]; 10% test substance, no sucrose): 7.1
- pH 6 hours later ([3]; 10% test substance, no sucrose): 7.0
- pH 8 hours later ([3]; 10% test substance, no sucrose): 6.9
- pH 12 hours later ([3]; 10% test substance, no sucrose): 6.9
- pH 24 hours later ([3]; 10% test substance, no sucrose): 6.8
- suppression of the pH reduction ([3]; 24 hours later, FIG. 3): pH reduction was suppressed
- suppression of OD increase compared with no addition [3]: suppression of OD increase was observed
